One data set relates to normal fibroblasts. The data set can be described thus: Telomere length in treated fibroblasts. Format: cell-based. The text has this: (§1) Based on results obtained on tissue cultured cells (increased RLS) and an increase in the numbers of HSC surrogate cells (LTC-IC or CFU), the inventors set their future goal to develop a novel pharmacological treatment for AA patients and potentially for other BMF. They have examined the most prominent features of cellular aging: telomere shortening, mitochondrial dysfunction or decline in respiratory capacity and shift in intracellular redox balance toward more oxidized environment. […] The only persistent effect of VA was considerable reduction in global protein disulfide bonds (up to 30%) detected by Elman's reagent or direct labelling of reduced sulfhydryl groups with biotin-switch assay (FIG. 3A). That brought the reductive hypothesis to the inventors' attention. The redox potential is controlled by sophisticated set of diverse enzymes and this system is fed from generation of NADPH by multiple hydrogenases (FIG. 3B). Among them, the glucose-6-phosphate dehydrogenase (G6P) is most important, because it controls the rate limiting step of pentose phosphate pathway. The other important dehydrogenases are isocytrate dehydrogenases (cytoplasmic and mitochondrial, IDH1/2) and 6-phosphogluconate dehydrogenase (6PG). The next anti-oxidant cellular protection layer is thioredoxin and glutathione systems (FIG. 3B). The first one is composed of thioredoxin reductase (TrxR) and thioredoxin. […]

Data set [1] relates to fibroblasts derived from Werner syndrome patient. As to the kind of experiment: RLS of Werner syndrome fibroblasts. Type of data set: cell-based, human. The text has this: (§2) FIGS. 1A-1I provide graphs and images showing a new high throughput method for simultaneous detection of senescence associated SAβG activity and ATP in culture of normal pre-aged cells identified two potent anti-aging scaffolds. (A). General schema of HTS. (B). […] (C). Structures and corresponding tautameric forms of lead compounds. (D) Evaluation of possible genotoxic effect of experimental drugs in modified Ames test. 4-Nitroquinoline 1-oxide (4NQO) was used as a positive control. […] The general schema of RLS measurement in different cell types. (F) VA and N2N1 considerably extend RLS of normal human fibroblasts (NHDF) and stromal cells isolated from human normal bone marrow. (G). […] (I). Upper panel: Morphological appearance of NHDF at late passages with or without treatment. Lower panel: Cells were also fixed in para-formaldehyde and stained to detect SAβG.

Data set [2] in a line: Modified Ames test for genotoxic effect. The note with it: 4NQO positive control.
Description: as §2
A general note: The Ames test uses bacterial strains that need an amino acid and regain growth without it when mutated back.

The next data set deals with cytochrome c. The data set can be described thus: Enzymatic NAD(P)H oxidation / cytochrome c reduction catalyzed by N2N1. Type of data set: biochemical. The protocol:
FIGS. 5A-5C provide graphs and schemes relating to the N2N1 mechanism of action. […] No specific substrate was added into reaction mix, therefore, it was concluded that reaction was driven by slow reduction of molecular oxygen dissolved into reaction buffer. The hypothetical reaction equation is shown below reaction plots. (B) The proposed molecular mechanism of possible substrate reduction catalyzed by N2N1. (C) Addition of peroxide or cytochrome c into reaction allowed us to identify cytochrome c as the most preferable substrate for the N2N1 driven enzymatic reaction. […] It was interesting to notice that addition of cytochrome c to non-enzymatic reaction reduced the reaction rate. […] The hypothetical reaction equation is show below the reaction plots.
FIGS. 6A-6B provide graphs showing the enzymatic reduction of cytochrome C catalyzed by N2N1 can utilize both NADH and NADPH. (A) The enzymatic electrons transfer from NADH to cytochrome c driven by N2N1 was monitored by decrease in absorption at 340 nm (NADH) and increase in absorption at 550 nm (cytochrome c). The absorbance spectrum was screened at the end of the reaction (˜1 hour). The hypothetical reaction equation is shown below the reaction plots. (B) The enzymatic electrons transfer from NADPH to cytochrome c driven by N2N1 was monitored by decrease in absorption at 340 nm (NADPH) and increase in absorption at 550 nm (cytochrome c). The hypothetical reaction equation is shown below the reaction plots.
To evaluate possible participation of mitochondrial NADH oxidoreductases, in particular Complex I and III, the […] was run in the presence of rotenone or antimycin A (2 μM). The acquired data allowed us to specify the most probable candidate that carry out the transfer electrons from NAD(P)H to cytochrome C driven by N2N1. The NQO1 protein would be the most likely candidate, while proteins from CYB5 family still cannot be ruled out.
Bonkowski et al., Nature reviews. Molecular cell biology 17, 679-690 (2016); Orr et al., Antioxidants & redox signaling 19, 788-803 (2013). It quite possible, that NAD(P)H oxidation catalyzed by N2N1 is performed by NADH:cytochrome b5 reductases (CYB5 . . . ) or NAD(P)H:quinone oxidoreductase (NQO1) reductase (FIG. 3C). The inventors found by RNA-seq analysis that fourteen genes from CYB5 family were expressed in normal fibroblast. NQO1 was also detected at the high level of expression. These reductases connect aerobic metabolism with aging by directed electron flow from NAD(P)H to oxygen, cytochrome C, and peroxide. Jimenez-Hidalgo et al., Aging cell 8, 140-151 (2009). […]

The subject of data set [3] is mitochondrial respiration rate. As to the kind of experiment: Mitochondrial respiration and glycolysis on Seahorse apparatus. The note with it: within few minutes or even hours after addition. Format: cell-based.
Description: as §1

Data set [4] deals with erythropoietin-dependent UT7 cells. The data set can be described thus: Growth of erythropoietin-dependent UT7 cells. Type of data set: cell-based.

As to `O=C1/C(=N/O)C=Cc2ccccc21` [N2N1, 1-naphthoquinone-2-monoxime], the telomere length result in the data set with normal fibroblasts is listed as “maintenance of telomere length was observed”. In data set [1], the “response of RLS to treatment” value is “did not respond”. The genotoxic effect result in data set [2] is given as “did not show any detrimental effect on DNA integrity”. The “catalysis of enzymatic NADH and NADPH conversion” value in the data set with cytochrome c (1 μM) is recorded as “actively catalyze”. In the data set with cytochrome c (0.5 mM cytochrome c, NADH or NADPH), the “time to complete reduction of cytochrome c” value fell in the range of 10 to 15 min. Also, in data set [3], the “immediate response in mitochondrial respiration rate or glycolysis efficacy” value was “could not detect any immediate”.

Regarding `O=C1NC(=O)C(=NO)C(=O)N1` [VA, 2,4,5,6(1H,3H)-pyrimidine-tetrone 5-oxime], in the data set on normal fibroblasts, the telomere length entry is reported as “maintenance of telomere length was observed”. Besides, in data set [1], the “response of RLS to treatment” value is listed as “did not respond”. The genotoxic effect entry in data set [2] was “did not show any detrimental effect on DNA integrity”. In data set [4], the growth support entry is listed as “does not support the growth”. Moreover, the “immediate response in mitochondrial respiration rate or glycolysis efficacy” value in data set [3] is “could not detect any immediate”.

The record behind these values is patent publication US11723907B2, “Anti-aging compounds” (THE CLEVELAND CLINIC FOUNDATION, priority 2017, dated 2023).
